Experimental data reported in patent US10959984B2, “Methods for treating cancer with RORγ inhibitors” (THE REGENTS OF THE UNIVERSITY OF CALIFORNIA, priority 2015, dated 2021).

Tests used:
AR = experiment: ARE reporter gene assay (5xARE-tk-luc) in 22Rv1 cells; format: cell-based, human
Protocol: Transient transfection and reporter gene assays were performed as previously described^49 with the following modifications. ARE reporter gene assays were performed by transfecting 22Rv1 cells with 5×ARE-tk-luc, pcDNA3.1-hAR and pCMV-β-gal for normalization. For transfection with constructs omitted for specific gene expression, corresponding empty vectors were used to ensure equal amount of total DNA used. Briefly, 22Rv1 cells seeded in 96-well plates in hormone-deprived medium supplemented with 10% cds-FBS (Hyclone) were transfected with lipofectamine 2000 (Life technology, Carlsbad, Calif., USA) and the indicated plasmid DNA. Cells were then treated at 12 hours after transfection with 3 nm R1881, indicated concentrations of RORγ antagonists or ENZ for another 24 hours before harvested for β-gal and luciferase assays. For RORE reporter gene assays, 4×AR-RORE-tk-luc was constructed by inserting four copies of the newly identified AR-RORE TTCTGGGTCA (SEQ ID NO: 1) into tk-luciferase reporter vector. AR-RORE mutant form (AR-RORE mut) contains sequences mutated from TTCTGGGTCA (SEQ ID NO: 1) to TTCTGAACGA (SEQ ID NO: 2). […] The luciferase and β-galactosidase were then analyzed with a Luciferase Assay Substrate (Promega) and Luminescent β-galactosidase Detection Kit II (Clontech). […]

22Rv1 xenografts = experiment: 22Rv1 xenograft tumor growth; format: in vivo, mice; conditions: nude mice; SR2211 5 mg/kg i.p., 8k/E11 10 and 20 mg/kg i.p., five times per week (FIG. 3A)
Protocol: (§1) Four-week-old male SCID C.B17 mice (for C4-2B and VCaP) or BALB/c nu/nu athymic mice (for 22Rv11 and PC-3) were purchased from Harlan Inc. For establishing tumors, 2×10^6 cells were suspended in total of 100 μL PBS/Matrigel (1:1) and implanted subcutaneously into the dorsal flank on both sides of the mice. Animal group size of six or more was estimated to have a high statistic power, based on power calculation (http://www.biomath.info/power/) and previous studies involving the same xenograft models^34,68. When the tumor volume was approximately 80 mm^3, the mice were randomized and then treated intraperitoneally (i.p.) with 100 μl of either vehicle or RORγ antagonists SR2211, XY011/8k (in a formulation of 15% Cremophor EL, Calbiochem, 82.5% PBS, and 2.5% DMSO) for five times per week. Tumor growth was monitored by calipers with volume calculated using the equation: (π/6 (length×width2)). Body weight during the course of the study was also monitored. At the end of the studies mice were killed and tumors were dissected and weighed. Additionally, prostate, seminal vesicle, testis, kidney, heart, lung, liver, epididymal fat pad and spleen were harvested and weighed. To assess the effect of combining RORγ antagonists and ENZ on the growth of castrated-resistant VCaP xenografts (CRPC-VCaP), first, SCID C.B17 mice were injected with VCaP cells as above to establish the tumors. Then, mice bearing tumors of approximately 180 mm^3 were surgically castrated. They were then observed for tumor regression. Once tumors grew back to the pre-castration size, mice were randomized and treated with vehicle, 5 mg kg^−1 SR2211, 10 mg kg^+1 ENZ or a combination of 5 mg kg^−1 SR2211 and 10 mg kg^−1 ENZ. ENZ was given by oral gavage as previously described^68 and SR2211 was administered i.p as above. Mice were excluded from the study if bearing no tumor or tumor with size twice larger or smaller than the mean, at the time of randomization.

CRPC-VCaP xenografts = experiment: Castration-resistant VCaP (CRPC-VCaP) xenograft tumor growth; format: in vivo; conditions: castrated mice, ENZ alone, 10 mg/kg oral
Protocol: as §1, with “Then, mice bearing tumors of approximately 180 mm^3 were surgically castrated. They were then observed for tumor regression. Once tumors grew back to the pre-castration size, mice were randomized and treated with vehicle, 5 mg kg^−1 SR2211, 10 mg kg^+1 ENZ or a combination of 5 mg kg^−1 SR2211 and 10 mg kg^−1 ENZ. ENZ was given by oral gavage as previously described^68 and SR2211 was administered i.p as above. Mice were excluded from the study if bearing no tumor or tumor with size twice larger or smaller than the mean, at the time of randomization.” left out

[1] = mouse, in vivo
Protocol: as §1, with “Then, mice bearing tumors of approximately 180 mm^3 were surgically castrated. They were then observed for tumor regression. Once tumors grew back to the pre-castration size, mice were randomized and treated with vehicle, 5 mg kg^−1 SR2211, 10 mg kg^+1 ENZ or a combination of 5 mg kg^−1 SR2211 and 10 mg kg^−1 ENZ. ENZ was given by oral gavage as previously described^68 and SR2211 was administered i.p as above. Mice were excluded from the study if bearing no tumor or tumor with size twice larger or smaller than the mean, at the time of randomization.” left out

CNC(=O)c1ccc(N2C(=S)N(c3ccc(C#N)c(C(F)(F)F)c3)C(=O)C2(C)C)cc1F [ENZ, enzalutamide]
response of multimerized ARE-driven reporter (AR): repressed
growth of xenograft tumors (22Rv1 xenografts): did not show any significant inhibitory effect
CRPC tumor growth (CRPC-VCaP xenografts): only marginally effective
tolerability based on weight of whole body and vital organs, and general behaviors [1]: well tolerated
